{
  "source": "paper PMC6008491",
  "about": "“Discovery of a novel allosteric inhibitor scaffold for polyadenosine-diphosphate-ribose polymerase 14 (PARP14) macrodomain 2” (Bioorganic & Medicinal Chemistry, 2018)",
  "biological_target": "T1, PARP14 MD2 (Homo sapiens, UniProt Q460N5)",
  "T1 sequence (Q460N5 1003-1190 limits assumed)": "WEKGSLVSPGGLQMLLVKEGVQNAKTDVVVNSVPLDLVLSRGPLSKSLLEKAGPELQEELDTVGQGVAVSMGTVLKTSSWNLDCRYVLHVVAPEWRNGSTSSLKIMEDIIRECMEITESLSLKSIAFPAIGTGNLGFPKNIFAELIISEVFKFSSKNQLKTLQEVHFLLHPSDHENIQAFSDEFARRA",
  "experiment": "AlphaScreen competitive binding assay, displacement of ADP-ribose peptide from PARP14 MD2",
  "set-up": "PARP14 MD2 (second MD of PARP14)",
  "settings": "Table 2; AlphaScreen, PARP14 MD2; read-out: IC50",
  "from_the_text": "Compounds were profiled for binding activity with PARP14 MD2 through a competitive (AlphaScreen™) binding assay measuring the displacement of ADP-ribose peptide from PARP14 MD2.[11a]",
  "data": [
    {"smiles": "O=C(Cc1ccc(=O)[nH]c1)Nc1ccccc1-c1cccc2c1[nH]c1ccccc12", "note": "[compound 88, N-(2-(9H-Carbazol-1-yl)phenyl)-2-(6-oxo-1,6-dihydropyridin-3-yl)acetamide]", "values": [
      {"measurement": "IC50", "value": "6.6 ± 0.4", "unit": "µM"}
    ]},
    {"smiles": "O=S(=O)(Cc1ccccc1F)Nc1ccccc1-c1cccc2c1[nH]c1ccccc12", "note": "[compound 89, N-(2-(9H-Carbazol-1-yl)phenyl)-1-(2-fluorophenyl)methanesulfonamide]", "values": [
      {"measurement": "IC50", "value": "2.4 ± 0.1", "unit": "µM"}
    ]},
    {"smiles": "O=C(Cc1ccccc1F)Nc1ccccc1-c1cccc2c1[nH]c1ccccc12", "note": "[compound 90, N-(2-(9H-Carbazol-1-yl)phenyl)-2-(2-fluorophenyl)acetamide]", "values": [
      {"measurement": "IC50", "value": "2.8 ± 0.2", "unit": "µM"}
    ]},
    {"smiles": "O=C(Cc1ccccc1Cl)Nc1ccccc1-c1cccc2c1[nH]c1ccccc12", "note": "[compound 91, N-(2-(9H-Carbazol-1-yl)phenyl)-2-(2-chlorophenyl)acetamide]", "values": [
      {"measurement": "IC50", "value": "4.4 ± 0.3", "unit": "µM"}
    ]},
    {"smiles": "Cc1ccc(CC(=O)Nc2ccccc2-c2cccc3c2[nH]c2ccccc23)cc1", "note": "[compound 92, N-(2-(9H-Carbazol-1-yl)phenyl)-2-(p-tolyl)acetamide]", "values": [
      {"measurement": "IC50", "value": "8.7 ± 1.2", "unit": "µM"}
    ]},
    {"smiles": "O=C(Cc1ccc(F)cc1)Nc1ccccc1-c1cccc2c1[nH]c1ccccc12", "note": "[compound 93, N-(2-(9H-Carbazol-1-yl)phenyl)-2-(4-fluorophenyl)acetamide]", "values": [
      {"measurement": "IC50", "value": "> 50", "unit": "µM"}
    ]},
    {"smiles": "COc1ccc(CC(=O)Nc2ccccc2-c2cccc3c2[nH]c2ccccc23)cc1", "note": "[compound 94, N-(2-(9H-Carbazol-1-yl)phenyl)-2-(4-methoxyphenyl)acetamide]", "values": [
      {"measurement": "IC50", "value": "6.2 ± 0.6", "unit": "µM"}
    ]},
    {"smiles": "N#Cc1ccc(CS(=O)(=O)Nc2ccccc2-c2cccc3c2[nH]c2ccccc23)cc1", "note": "[compound 95, N-(2-(9H-Carbazol-1-yl)phenyl)-1-(4-cyanophenyl)methanesulfonamide]", "values": [
      {"measurement": "IC50", "value": "6.2 ± 0.6", "unit": "µM"}
    ]},
    {"smiles": "O=C(Cc1ccc(Cl)cc1)Nc1ccccc1-c1cccc2c1[nH]c1ccccc12", "note": "[compound 96, N-(2-(9H-Carbazol-1-yl)phenyl)-2-(4-chlorophenyl)acetamide]", "values": [
      {"measurement": "IC50", "value": "6.2 ± 0.6", "unit": "µM"}
    ]},
    {"smiles": "O=S(=O)(Cc1ccc(C(F)(F)F)cc1)Nc1ccccc1-c1cccc2c1[nH]c1ccccc12", "note": "[compound 97, N-(2-(9H-Carbazol-1-yl)phenyl)-1-(4-(trifluoromethyl)phenyl)methanesulfonamide]", "values": [
      {"measurement": "IC50", "value": "8.1 ± 0.7", "unit": "µM"}
    ]},
    {"smiles": "COc1ccc(CC(=O)Nc2ccccc2-c2cccc3c2[nH]c2ccccc23)cc1OC", "note": "[compound 98, N-(2-(9H-Carbazol-1-yl)phenyl)-2-(3,4-dimethoxyphenyl)acetamide]", "values": [
      {"measurement": "IC50", "value": "4.3 ± 0.3", "unit": "µM"}
    ]},
    {"smiles": "O=C(Cc1ccc2c(c1)OCO2)Nc1ccccc1-c1cccc2c1[nH]c1ccccc12", "note": "[compound 99, N-(2-(9H-Carbazol-1-yl)phenyl)-2-(benzo[d][1,3]dioxol-5-yl)acetamide]", "values": [
      {"measurement": "IC50", "value": "6.9 ± 0.6", "unit": "µM"}
    ]},
    {"smiles": "Cc1ccc(C)c(CC(=O)Nc2ccccc2-c2cccc3c2[nH]c2ccccc23)c1", "note": "[compound 101, N-(2-(9H-Carbazol-1-yl)phenyl)-2-(2,5-dimethylphenyl)acetamide]", "values": [
      {"measurement": "IC50", "value": "44.6 ± 10.4", "unit": "µM"}
    ]},
    {"smiles": "O=C(Cc1ccc(Cl)c(Cl)c1)Nc1ccccc1-c1cccc2c1[nH]c1ccccc12", "note": "[compound 102, N-(2-(9H-Carbazol-1-yl)phenyl)-2-(3,4-dichlorophenyl)acetamide]", "values": [
      {"measurement": "IC50", "value": "6.3 ± 0.6", "unit": "µM"}
    ]},
    {"smiles": "COc1cccc(CC(=O)Nc2ccccc2-c2cccc3c2[nH]c2ccccc23)c1", "note": "[compound 103, N-(2-(9H-Carbazol-1-yl)phenyl)-2-(3-methoxyphenyl)acetamide]", "values": [
      {"measurement": "IC50", "value": "6.6 ± 0.5", "unit": "µM"}
    ]},
    {"smiles": "O=C(Cc1cccc(F)c1)Nc1ccccc1-c1cccc2c1[nH]c1ccccc12", "note": "[compound 104, N-(2-(9H-Carbazol-1-yl)phenyl)-2-(3-fluorophenyl)acetamide]", "values": [
      {"measurement": "IC50", "value": "4.2 ± 0.3", "unit": "µM"}
    ]},
    {"smiles": "O=S(=O)(Cc1cccc(F)c1)Nc1ccccc1-c1cccc2c1[nH]c1ccccc12", "note": "[compound 105, N-(2-(9H-Carbazol-1-yl)phenyl)-1-(3-fluorophenyl)methanesulfonamide]", "values": [
      {"measurement": "IC50", "value": "1.4 ± 0.1", "unit": "µM"}
    ]},
    {"smiles": "O=C(Cc1cccc(C(F)(F)F)c1)Nc1ccccc1-c1cccc2c1[nH]c1ccccc12", "note": "[compound 106, N-(2-(9H-Carbazol-1-yl)phenyl)-2-(3-(trifluoromethyl)phenyl)acetamide]", "values": [
      {"measurement": "IC50", "value": "7.1 ± 0.7", "unit": "µM"}
    ]}
  ]
}
